Source: ChEMBL document CHEMBL3880421, “Indazole compounds and pharmaceutical compositions for inhibiting protein kinases, and methods for their use” (2003)

Test: Antiproliferative activity against VEGF-stimulated HUVEC cells assessed as reduction in cell viability at 0.5 nM preincubated for 1 hr followed by addition of VEGF measured after 72 hrs by MTT assay
Format: functional
Settings: Homo sapiens

Structure (SMILES)	inhibition at 0.0005 µM [%]
Cc1cc(NC(=O)c2ccccc2Sc2ccc3c(/C=C/c4ccccn4)n[nH]c3c2)ccc1C(C)C	6
Cc1ccccc1C(=O)NNC(=O)c1ccccc1Nc1ccc2c(/C=C/c3ccccn3)n[nH]c2c1	86
CCCCc1ccc(NC(=O)c2ccccc2Sc2ccc3c(/C=C/c4ccccn4)n[nH]c3c2)cc1	-22
Cc1ccccc1NC(=O)c1ccccc1Sc1ccc2c(/C=C/c3ccccn3)n[nH]c2c1	5
O=C(N[C@@H](CO)c1ccccc1)c1ccccc1Sc1ccc2c(/C=C/c3ccccn3)n[nH]c2c1	-17
O=C(NCCCc1ccccc1)c1ccccc1Nc1ccc2c(/C=C/c3ccccn3)n[nH]c2c1	50
CCOC(=O)c1c[nH]nc1NC(=O)c1ccccc1Sc1ccc2c(/C=C/c3ccccn3)n[nH]c2c1	-11
Cc1ccc(Cl)cc1NC(=O)c1ccccc1Sc1ccc2c(/C=C/c3ccccn3)n[nH]c2c1	22
C[C@H](NC(=O)c1ccccc1Sc1ccc2c(/C=C/c3ccccn3)n[nH]c2c1)c1cccc2ccccc12	-20
Cc1cc(F)ccc1NC(=O)c1ccccc1Sc1ccc2c(/C=C/c3ccccn3)n[nH]c2c1	-22
Cc1ccc(NC(=O)c2ccccc2Sc2ccc3c(/C=C/c4ccccn4)n[nH]c3c2)cc1	-15
C[C@H](NC(=O)c1ccccc1Sc1ccc2c(/C=C/c3ccccn3)n[nH]c2c1)c1ccc2ccccc2c1	-8
Cc1ccc(C(N)=O)cc1NC(=O)c1ccccc1Sc1ccc2c(/C=C/c3ccccn3)n[nH]c2c1	15
O=C(N[C@H]1CC2CCC1C2)c1ccccc1Sc1ccc2c(/C=C/c3ccccn3)n[nH]c2c1 (some centres not stated)	-9
Cc1cc(C)cc(NC(=O)c2ccccc2Sc2ccc3c(/C=C/c4ccccn4)n[nH]c3c2)c1	-4
COc1cccc(OC)c1NC(=O)c1ccccc1Sc1ccc2c(/C=C/c3ccccn3)n[nH]c2c1	-57
CC(C)Oc1ccc(NC(=O)c2ccccc2Sc2ccc3c(/C=C/c4ccccn4)n[nH]c3c2)cc1	-9
O=C(N[C@@H]1C[C@H]1c1ccccc1)c1ccccc1Sc1ccc2c(/C=C/c3ccccn3)n[nH]c2c1 (racemic)	10
O=C(NCc1ccc2c(c1)OCC2)c1ccccc1Sc1ccc2c(/C=C/c3ccccn3)n[nH]c2c1	14
O=C(Nc1ccc(O)c2ccccc12)c1ccccc1Sc1ccc2c(/C=C/c3ccccn3)n[nH]c2c1	4
Cc1cc(C)c(NC(=O)c2ccccc2Sc2ccc3c(/C=C/c4ccccn4)n[nH]c3c2)c(C)c1	-10

Structure (SMILES)	inhibition at 0.0005 µM [%]
O=C(NCc1ccccc1)c1ccccc1Nc1ccc2c(/C=C/c3ccccn3)n[nH]c2c1	70
O=C(Nc1cccc2c1CCCC2)c1ccccc1Sc1ccc2c(/C=C/c3ccccn3)n[nH]c2c1	-17
Cc1ccc(NC(=O)c2ccccc2Sc2ccc3c(/C=C/c4ccccn4)n[nH]c3c2)cc1Cl	-11
CCC(NC(=O)c1ccccc1Nc1ccc2c(/C=C/c3ccccn3)n[nH]c2c1)c1ccccc1 (configuration not stated)	45
O=C(NCCc1cccs1)c1ccccc1Sc1ccc2c(/C=C/c3ccccn3)n[nH]c2c1	36
O=C(NCc1ccccc1F)c1ccccc1Nc1ccc2c(/C=C/c3ccccn3)n[nH]c2c1	75
CC(C)(NC(=O)c1ccccc1Sc1ccc2c(/C=C/c3ccccn3)n[nH]c2c1)c1ccccc1	-25
O=C(NNC(=O)c1ccccc1Nc1ccc2c(/C=C/c3ccccn3)n[nH]c2c1)c1ccccn1	69
COc1ccc(CNC(=O)c2ccccc2Nc2ccc3c(/C=C/c4ccccn4)n[nH]c3c2)cc1	63
C[C@H](CNC(=O)c1ccccc1Sc1ccc2c(/C=C/c3ccccn3)n[nH]c2c1)c1ccccc1	-9
COc1ccc(C(N)=O)cc1NC(=O)c1ccccc1Sc1ccc2c(/C=C/c3ccccn3)n[nH]c2c1	5
O=C(Nc1c(Cl)cccc1Cl)c1ccccc1Sc1ccc2c(/C=C/c3ccccn3)n[nH]c2c1	-45
O=C(NC[C@@H]1CCCO1)c1ccccc1Sc1ccc2c(/C=C/c3ccccn3)n[nH]c2c1	-8
CC(C)c1cccc(NC(=O)c2ccccc2Sc2ccc3c(/C=C/c4ccccn4)n[nH]c3c2)c1	8
C[C@@H](NC(=O)c1ccccc1Sc1ccc2c(/C=C/c3ccccn3)n[nH]c2c1)c1ccccc1	9
O=C(Nc1ccc2c(c1)CCC2)c1ccccc1Sc1ccc2c(/C=C/c3ccccn3)n[nH]c2c1	-6
CCc1cccc(C)c1NC(=O)c1ccccc1Sc1ccc2c(/C=C/c3ccccn3)n[nH]c2c1	-4
O=C(NC[C@@H](O)c1ccccc1)c1ccccc1Sc1ccc2c(/C=C/c3ccccn3)n[nH]c2c1	2
CCCc1ccc(NC(=O)c2ccccc2Sc2ccc3c(/C=C/c4ccccn4)n[nH]c3c2)cc1	22
Cc1cccc(CNC(=O)c2ccccc2Nc2ccc3c(/C=C/c4ccccn4)n[nH]c3c2)c1	19
Cc1cc(C)c(NC(=O)c2ccccc2Sc2ccc3c(/C=C/c4ccccn4)n[nH]c3c2)c(Cl)c1	-26

Structure (SMILES)	inhibition at 0.0005 µM [%]
CC(C)(C)c1cccc(NC(=O)c2ccccc2Sc2ccc3c(/C=C/c4ccccn4)n[nH]c3c2)c1	-5
O=C(N[C@H](CO)c1ccccc1)c1ccccc1Sc1ccc2c(/C=C/c3ccccn3)n[nH]c2c1	18
Cc1c(Cl)cccc1NC(=O)c1ccccc1Sc1ccc2c(/C=C/c3ccccn3)n[nH]c2c1	9
O=C(NCc1ccc2c(c1)OCO2)c1ccccc1Nc1ccc2c(/C=C/c3ccccn3)n[nH]c2c1	46
CCCCC(NC(=O)c1ccccc1Sc1ccc2c(/C=C/c3ccccn3)n[nH]c2c1)C(=O)NO (configuration not stated)	0
O=C(Nc1ccccc1Cl)c1ccccc1Sc1ccc2c(/C=C/c3ccccn3)n[nH]c2c1	-2
C#CC(NC(=O)c1ccccc1Sc1ccc2c(/C=C/c3ccccn3)n[nH]c2c1)C1CCCCC1 (configuration not stated)	3
O=C(NC[C@H]1CCCO1)c1ccccc1Sc1ccc2c(/C=C/c3ccccn3)n[nH]c2c1	-11
COC(=O)c1ccc(NC(=O)c2ccccc2Sc2ccc3c(/C=C/c4ccccn4)n[nH]c3c2)c(O)c1	-22
CNC(=O)c1cccc(NC(=O)c2ccccc2Sc2ccc3c(/C=C/c4ccccn4)n[nH]c3c2)c1	-11
CCOC(=O)c1cccc(NC(=O)c2ccccc2Sc2ccc3c(/C=C/c4ccccn4)n[nH]c3c2)c1	7
O=C(Nc1nccc2cccnc12)c1ccccc1Sc1ccc2c(/C=C/c3ccccn3)n[nH]c2c1	-3
Cc1cccc(NC(=O)c2ccccc2Sc2ccc3c(/C=C/c4ccccn4)n[nH]c3c2)c1	3
COc1sc(NC(=O)c2ccccc2Sc2ccc3c(/C=C/c4ccccn4)n[nH]c3c2)nc1C	-2
O=C(Nc1nccnn1)c1ccccc1Sc1ccc2c(/C=C/c3ccccn3)n[nH]c2c1	3
CC1(C)C2CC[C@H](CNC(=O)c3ccccc3Sc3ccc4c(/C=C/c5ccccn5)n[nH]c4c3)C1C2 (some centres not stated)	-19
O=C(N[C@H]1CCc2ccccc21)c1ccccc1Sc1ccc2c(/C=C/c3ccccn3)n[nH]c2c1	8 to 15
CNc1ccccc1NC(=O)c1ccccc1Sc1ccc2c(/C=C/c3ccccn3)n[nH]c2c1	-2
CCCOCCNC(=O)c1ccccc1Nc1ccc2c(/C=C/c3ccccn3)n[nH]c2c1	28
C[C@@H](NC(=O)c1ccccc1Sc1ccc2c(/C=C/c3ccccn3)n[nH]c2c1)C1CCCCC1	9
O=C(N[C@@H]1CN2CC[C@H]1C2)c1ccccc1Nc1ccc2c(/C=C/c3ccccn3)n[nH]c2c1	12

Structure (SMILES)	inhibition at 0.0005 µM [%]
O=C(Nc1cnc2ccccc2c1)c1ccccc1Sc1ccc2c(/C=C/c3ccccn3)n[nH]c2c1	-8
O=C(NCc1cc(F)cc(F)c1F)c1ccccc1Sc1ccc2c(/C=C/c3ccccn3)n[nH]c2c1	24
CC(C)(C)OC(=O)C(C)(C)NC(=O)c1ccccc1Sc1ccc2c(/C=C/c3ccccn3)n[nH]c2c1	6
C[C@@H](NC(=O)c1ccccc1Sc1ccc2c(/C=C/c3ccccn3)n[nH]c2c1)c1ccc2ccccc2c1	1
CC(C)(Cc1ccc(F)cc1)NC(=O)c1ccccc1Sc1ccc2c(/C=C/c3ccccn3)n[nH]c2c1	-7
C[C@H](NC(=O)c1ccccc1Sc1ccc2c(/C=C/c3ccccn3)n[nH]c2c1)c1ccccc1	-3
O=C(NC12CC3CC(CC(C3)C1)C2)c1ccccc1Sc1ccc2c(/C=C/c3ccccn3)n[nH]c2c1	3
CCCCCNC(=O)c1ccccc1Nc1ccc2c(/C=C/c3ccccn3)n[nH]c2c1	49
C[C@H](NC(=O)c1ccccc1Sc1ccc2c(/C=C/c3ccccn3)n[nH]c2c1)C1CCCCC1	-12
CC(=O)Nc1cccc(NC(=O)c2ccccc2Sc2ccc3c(/C=C/c4ccccn4)n[nH]c3c2)c1	-29
CC(C)OCCNC(=O)c1ccccc1Nc1ccc2c(/C=C/c3ccccn3)n[nH]c2c1	51
C[C@@H](CNC(=O)c1ccccc1Sc1ccc2c(/C=C/c3ccccn3)n[nH]c2c1)c1ccccc1	3
Cc1cc(C)c(O)c(NC(=O)c2ccccc2Sc2ccc3c(/C=C/c4ccccn4)n[nH]c3c2)c1	-5
CC(C)(C)CNC(=O)c1ccccc1Nc1ccc2c(/C=C/c3ccccn3)n[nH]c2c1	5 to 19
O=C(Nc1cc(F)cc(F)c1)c1ccccc1Sc1ccc2c(/C=C/c3ccccn3)n[nH]c2c1	-36
COc1ccc(NC(=O)c2ccccc2Sc2ccc3c(/C=C/c4ccccn4)n[nH]c3c2)cc1O	-19
O=C(Nc1cccc2ccc(O)cc12)c1ccccc1Sc1ccc2c(/C=C/c3ccccn3)n[nH]c2c1	-6
O=C(N[C@@H]1c2ccccc2C[C@@H]1O)c1ccccc1Sc1ccc2c(/C=C/c3ccccn3)n[nH]c2c1	-6
O=C(Nc1ccc(O)cc1O)c1ccccc1Sc1ccc2c(/C=C/c3ccccn3)n[nH]c2c1	20
